Measurements published in US5556840A, “2',5'-phosphorothioate oligoadenylates as anitiviral agents” (Temple University - Of The Commonwealth System of Higher …, priority 1994, dated 1996).
“Also recorded” adds a separate entry of the source. Where two headings read alike, the source gives them in different places.

Assays:
[1] = system: RNase L; assay: Core-cellulose assay: activation of partially-purified RNase L to hydrolyze poly(U)-3'-[32P]pCp; assay type: biochemical, mouse; details: poly(U)-3'-[32P]pCp substrate
Experimental: FIG. 1B represents the results of a core-cellulose assay indicating the ability of the 2',5'-phosphorothioate adenylate trimer cores and 5'-monophosphates to activate partially-purified RNase L from L929 cell extracts to hydrolyze the substrate polY(U)-3'-[^32 P]pCp. Activation of RNase L was determined by conversion of poly (U )-3'-[^32 P]pCp to acid-soluble fragments. 100% represents 30,000 cpm of labelled poly(U)-3'-[^32 P]pCp bound to glass fiber filters. The curves are labelled in the same manner as FIG. 1A.
The 2',5'-phosphorothioate cores, with one exception, have the correct stereoconfiguration to activate RNase L. The activation of partially-purified RNase L by the 2',5'-phosphorothioates was measured according to the core-cellulose assay of Silverman, Analyt. Biochem. 144:450-460 (1985) which relies on hydrolysis of the substrate poly(U)-3-[^32 P]pCp. […] (FIG. 1B) The order of activation of the trimer cores and the corresponding 5'-monophosphates is: RpRp>SpRp>RpSp (FIG. 1B).

[2] = system: RNase L; assay: rRNA cleavage assay using L929 cell extracts (28S and 18S rRNA); assay type: biochemical, mouse; details: L929 cell extracts; '>' = no activation at that concentration
Experimental: Activation of RNase L by 2',5'-phosphorothioate adenylate trimer cores and their 5'-monophosphates was also measured in an rRNA cleavage assay using L929 cell extracts.
The corresponding 5'-monophosphates pARp ARp A, pASp ARp A (at 10^-8 M) and pARp ASp A (at 10^-7 M) activated RNase L to cleave 28S and 18S rRNA.

[3] = system: HIV reverse transcriptase; assay: HIV reverse transcriptase activity; assay type: biochemical, HIV (HTLV-IIIB); details: 200 uM; for Reverse Transcriptase Activity: control 187×10^3 cpm (reactions 1-4), 273×10^3 cpm (reactions 5-13)
Experimental: HIV reverse transcriptase (RNA-dependent DNA nucleotidyl-transferase) activity was assayed by a modification of the procedure of Poiesz et al. (Poiesz, B. J., Ruscetti , F. W., Gazdar, A. F., Bunn, P. S., Minna, J. D., and Gallo, R. C., Proc. Natl. Acad. Sci. U.S.A. 77: 7415-7419 (1980)).
Cultured H-9 cells are grown at 10^6 cells/ml in RPMI-1640 medium and 20% heat-inactivated fetal calf serum. Cell suspensions are centrifuged (1000×g, 10 min.) and the supernatant is removed. Virus particles are precipitated from this cell-free supernatant to which 0.3 ml of 4M NaCl and 3.6 ml of 30% (weight/volume) polyethylene glycol are added. The suspension is placed on ice for 2 hr following centrifugation at 15,000×g for 30 min at 0° C. The precipitate is resuspended in 200 microliters of 50% glycerol (vol./vol.)/25 mM Tris-HCl (pH 7.5)/5 mM dithiothreitol/50 mM KCl/0.025% Triton X-100. Virus particles are lysed by the addition of 100 microliters of 0.9% Triton X-100/1.5M KCl. Reverse transcriptase assays are performed at 37° C. for 1 hr with 10 microliters of the lysed virus solution in a final reaction volume of 100 microliters containing: 40 mM Tris-HCl (pH 7.8), 4 mM dithiothreitol, 45 mM KCl and 2.5 micrograms of template primer [poly(A)-dT15, 0.5 micrograms/microliter] (with a signal Mg^++ concentration of 10 mM). At this time, 10 microliters of the 2',5'-phosphorothioate oligoadenylate is added to a final concentration of 200 micromolar. Reaction mixtures also contain 4 micromoles of [^3 H]dTTP. Reactions are stopped by the addition of cold 5% trichloroacetic acid and filtered through nitrocellulose discs. The discs are dried and the radioactivity bound to the discs is determined. Reverse transcriptase activity is expressed as the percent relative to a control.
The compounds were assayed in the above manner in two sets, each set having a separate set of controls. The compounds of reactions 1-4 were assayed against control #1, which was 187×10^3 cpm. The compounds used in reactions 5-13 were assayed against control #2, which was 273×10^3 cpm.

[4] = system: tobacco mosaic virus (TMV); assay: TMV replication in intact Nicotiana glutinosa plants (local lesions); assay type: in vivo; details: 2 × 10^-5 M in infecting solution; 48 hr after infection; half-leaves of N. glutinosa
Experimental: Carborundum (400 mesh) was sprinkled lightly onto leaves. Solutions containing 0.2 micrograms per ml of TMV and 2×10^-5 M 2',5'-phosphorothioate oligoadenylate in phosphate buffer were applied onto half-leaves of N. glutinosa with either a gloved finger or with a pipettor. The remaining half-leaves were controls (inoculated with the buffer solution containing TMV, but no active compound). The infection was allowed to proceed 48 h under continuous illumination of about 1500 Lx at which time local virus lesions appeared. Inhibition of TMV replication was calculated as the percent of local lesions produced in 2',5'-phosphorothioate oligoadenylate-treated half-leaves compared to control half-leaves.
^4 Inhibition of TMV replication was detected 48 hr after infection
and was calculated as the percent of local lesions produced in treated
halfleaves of N. glutinosa compared to control halfleaves.

[5] = system: phosphodiesterases; assay: Metabolic stability, general statements; assay type: in vitro ADME
[6] = system: SVPD; assay: Hydrolysis by SVPD (snake venom phosphodiesterase); assay type: in vitro ADME
Experimental: It is known that the enzyme SVPD preferentially cleaves Rp-3',5'- or 2',5'-phosphorothioate linkages from the 2'/3'-terminus. Nelson et al, J. Org. Chem. 49:2314-2317 (1984); Eppstein et al, J. Biol. Chem. 261:5999-6003 (1986); Lee et al, Biochemistry 24:551-555 (1985). SVPD hydrolysis of the chemically synthesized dimer core ARp A yielded adenosine and AMPS in a molar ratio of 1:1, respectively; the half-life was 3 hours (Table 3).
(§1) The metabolic stability of the 2,5'-phosphorothioate dimer and trimer cores is markedly greater than authentic 2-5A. The rate of hydrolysis of the trimer cores by the 3'-exonuclease SVPD is, in order of decreasing stability: ASp ARp A>ARp ARp A>>>A3. […] The 3'->'5'direction of stepwise cleavage by SVPD is blocked by an Sp configuration, preventing cleavage of the upstream adjacent phosphorothioate linkage. […] With both SVPD and 2'-PDE, the dimer cores (either ARp A or ASp A) accumulate following hydrolysis of the ARp ARp A, ASp ARp A and ARp ASp A trimer cores. Hydrolysis of the 2-5A molecule by SVPD and 2'-PDE proceeds from the 2'/3'-terminus. Therefore, introduction of the phosphorothioate group into the trimer core results in the accumulation of the ARp A or ASp A dimer cores from the 5'-terminus and the accumulation of AMPS from the 2'/3'-terminus (Table 3). With authentic A3, there is no detectable accumulation of A2 following hydrolysis by SVPD or 2'-PDE.

[7] = system: 2'-phosphodiesterase (2'-PDE), L cell extract; assay: Hydrolysis by 2'-phosphodiesterase in L cell extract; assay type: in vitro ADME
From the text: The four 2,5-phosphorothioate adenylate trimer cores were further characterized by hydrolysis with the enzyme 2'-phosphodiesterase ("2'-PDE"), an exoribonuclease found in L cell extract The enzyme cleaves from the 2'/3'-terminus.
as §1

[8] = system: RNase L; assay: Activation or inhibition of RNase L, general statements without assay named; assay type: biochemical
[9] = system: serum phosphodiesterases; assay: Hydrolysis by serum phosphodiesterases

Row | Substance | activation of RNase L, core-cellulose assay (result in words) [1] | concentration at which RNase L was activated to cleave 28S and 18S rRNA [2] | Percent Inhibition of HIV reverse transcriptase [3] [%] | Reverse Transcriptase Activity [3] | Percent TMV Inhibition [4] [%] | metabolic stability (result in words) [5] | hydrolysis by SVPD (result in words) [6] | hydrolysis by SVPD (result in words) ([6]; listed as ARp ASp A) | half life, hydrolysis by L cell extract [7] [days] | effect on RNase L activation (result in words) [8] | hydrolysis by serum phosphodiesterases (result in words) [9]
1 | 5'-O-Phosphoryl-(Rp)-thioadenylyl-(2'-5')-(Rp)-thioadenylyl-(2'-5')-adenosine [pARp ARp A] | most efficient activator of RNase L | 10^-8 M | 25 | 144 10^3 cpm | 75 | metabolically unstable and is readily attacked by phosphodiesterases | – | – | – | – | –
2 | (Rp)-P-Thioadenylyl-(2'-5')-(Sp)-P-thiodenylyl-(2'-5')-adenosine [Compound 10A] | – | > 10^-4 M | 10 | 247 10^3 cpm | 70 | metabolicly stable | not substrates for SVPD; also recorded: not cleaved | not substrates of SVPD | 20 | activates RNase L | not cleaved
